Results as given in patent publication US20100041665A1, “N-PHENYL-PRENYLAMINE DERIVATIVES FOR THE TREATMENT OF COGNITIVE, NEURODEGENERATIVE OR NEURONAL DISEASES OR DISORDERS” (NOSCIRA, S.A., priority 2006, published 2010).

Assays:
[1] = target: T1, rhBACE-1 β-Secretase recombinant human (Homo sapiens, UniProt P56817); assay: BACE assay (FRET); type: biochemical; conditions: percentage of enzyme activity
T1 construct: purchased R&D Systems 931-AS
Source text: The aim of this assay is to determine if a compound, either synthetic or of marine origin, is a BACE-1 inhibitor, to avoid the formation of Aβ. This assay is based on FRET technology (Fluorescence Resonance Energy Transfer). FRET is used to measure cleavage of a peptide substrate, among other uses. […] When a substrate peptide cleavage occurs, the energy balance is broken and all the donor fluorescence can be observed. The increase in fluorescence is linearly related to the rate of proteolysis (Gordon, G W et al., 1998). In this assay the reaction occurs between an enzyme, purified BACE-1, and a fluorogenic peptidic substrate who present the “Swedish mutation”. The peptide cleavage by BACE-1 produces fluorescence energy and enzymatic activity can be quantified.
The reagents which are used in this assay are the following: • rhBACE-1 β-Secretase recombinant human (R&D Systems. Ref. 931-AS). • Fluorogenic Peptide Substrate IV (R&D Systems. Ref. ES004). • Beta-SECRETASE INHIBITOR H-4848. (BACHEM. Ref. H-4848.0001). • Sodium acetate.
The assay is carried out in a 96 wells microplate. The final concentration of substrate is 3.5 μM per well, and the enzyme concentration is 0.5 μg/ml. The final volume of the assay is 100 μl per well and all reagents are diluted in Reaction Buffer. The compounds are tested at a concentration of 10^−5 and 10^−6 M. The control in the assay is the commercial inhibitor β-Secretase inhibitor H-4848 from BACHEM, which is tested at 300 nM. All the samples and controls are studied by duplicate.
The plate is mixed gently and changes in the fluorescence are measured using a fluorimeter plate reader, with 320 nm excitation filter and 405 nm emission filter. The temperature should be preferably maintained between 25 and 30° C. Measurements are carried out every ten minutes during an hour. The first measure is subtracted from the last to calculate the fluorescence increase, evaluating the enzymatic activity. The 100% activity is calculated as the mean of the results of wells without sample or inhibitor.
In the cases where abnormal effects in fluorescence were detected, BACE inhibition activity was assayed using BACE-1 (beta-Secretase) FRET ASSAY KIT (Invitrogen, Ref. P2985). Fluorescence was measured with a fluorimeter plate reader, with 544 nm excitation filter and 580 nm emission filter.
(§1) The compounds of formula (I) of the present invention where submitted to the above indicated assays, in order to determine both their GSK-3 inhibition activity and BACE activity inhibition. The results are indicated in Table I and Table II, in percentage of the respective enzyme activity.

[2] = target: Recombinant human glycogen synthase kinase 3 beta (Homo sapiens, UniProt P49841); assay: GSK-3 beta inhibition assay; type: biochemical; conditions: percentage of enzyme activity; for remaining activity at 25 µM / remaining activity at 50 µM: 0.5 h
Method: GSK-3 beta Inhibition Assay
The GSK-3 beta activity of the compounds of formula (I) according to the present invention was determined by incubation of a mixture of recombinant human GSK-3 enzyme, a phosphate source and GSK-3 substrate in the presence and in the absence of the corresponding test compound, and by measuring the GSK-3 activity of this mixture. The compounds where tested at final concentrations of 25 and 50 μM.
Recombinant human glycogen synthase kinase 3 beta was assayed in MOPS 11 mM, pH 7.4, EDTA 0.2 mM, EGTA 1.25 mM, MgCl2 26.25 mM and sodium orthovanadate 0.25 mM in the presence of 62.5 μM of Phospho-Glycogen Synthase Peptide-2 (GS-2), 0.5 μCi gamma-^33P-ATP and unlabelled ATP at a final concentration of 12.5 μM. The final assay volume was 20 μl. After incubation for 30 minutes at 30° C., 15 μl aliquots were spotted onto P81 phosphocellulose papers. Filters were washed four times for at least 10 minutes each and counted with 1.5 ml of scintillation cocktail in a scintillation counter.
as §1

Sequence of Recombinant human glycogen synthase kinase 3 beta (P49841 whole entry): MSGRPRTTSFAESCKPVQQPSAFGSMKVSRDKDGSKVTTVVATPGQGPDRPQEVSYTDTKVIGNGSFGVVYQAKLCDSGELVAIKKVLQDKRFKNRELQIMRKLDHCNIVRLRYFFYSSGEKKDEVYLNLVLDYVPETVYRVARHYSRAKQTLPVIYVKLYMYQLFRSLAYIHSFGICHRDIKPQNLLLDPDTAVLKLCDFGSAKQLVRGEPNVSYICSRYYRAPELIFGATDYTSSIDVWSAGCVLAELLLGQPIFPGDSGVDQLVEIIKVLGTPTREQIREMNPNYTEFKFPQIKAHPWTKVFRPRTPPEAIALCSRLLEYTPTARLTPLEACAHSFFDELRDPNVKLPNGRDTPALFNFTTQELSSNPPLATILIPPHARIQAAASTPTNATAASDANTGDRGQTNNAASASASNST
T1 sequence (P56817 46-457 limits assumed): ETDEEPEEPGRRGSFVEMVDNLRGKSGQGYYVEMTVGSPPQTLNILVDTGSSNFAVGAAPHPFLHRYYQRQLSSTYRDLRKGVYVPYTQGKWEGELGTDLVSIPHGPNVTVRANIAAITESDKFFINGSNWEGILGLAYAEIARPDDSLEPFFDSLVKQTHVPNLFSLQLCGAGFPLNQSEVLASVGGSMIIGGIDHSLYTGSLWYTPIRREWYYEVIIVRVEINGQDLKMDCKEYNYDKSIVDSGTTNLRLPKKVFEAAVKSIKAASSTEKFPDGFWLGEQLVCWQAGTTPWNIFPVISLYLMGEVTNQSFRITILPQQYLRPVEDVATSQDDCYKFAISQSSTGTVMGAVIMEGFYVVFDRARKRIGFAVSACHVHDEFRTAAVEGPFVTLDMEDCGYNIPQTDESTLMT

| Compound | % of BACE activity ([1]; compound at 1 μM) [%] | % of BACE activity ([1]; compound at 10 μM) [%] | remaining activity at 25 µM ([2]; compound at 25 μM) [%] | remaining activity at 50 µM ([2]; compound at 50 μM) [%] | % GSK-3 beta activity ([2]; compound at 25 μM) [%] | % GSK-3 beta activity ([2]; compound at 50 μM) [%] |
| --- | --- | --- | --- | --- | --- | --- |
| COc1ccc(C(=O)O)cc1NC/C=C(\C)CC/C=C(\C)CCC=C(C)C [Compound 5] | 50 ± 9 | 0 | 70.2 | 52.8 | – | – |
| COC(=O)c1cccc(NC/C=C(\C)CC/C=C(\C)CCC=C(C)C)c1 [Compound 7] | 0 | 0 | – | 54.7 | – | – |
| CC(C)=CCC/C(C)=C/CC/C(C)=C/CNc1cccc(C(=O)O)c1 [Compound 9] | 89.5 ± 9 | 25.5 ± 6 | 84.1 | 39.6 | – | – |
| COc1ccccc1NCC=C(C)CCC=C(C)CCC=C(C)C [Compound 12, (2-Methoxy-phenyl)-(3,7,11-trimethyl-dodeca-2,6,10-trienyl)-amine] | 94 ± 8 | 64.5 ± 9 | 74.8 | 56.7 | – | – |
| CC(C)=CCCC(C)=CCNc1cccc(C(=O)O)c1 [Compound 13, 3-(3,7-Dimethyl-octa-2,6-dienylamino)-benzoic acid] | 75 ± 5 | 70 ± 19 | 55.5 | 35.5 | – | – |
| COCOc1ccc(C(=O)OC)cc1NC/C=C(\C)CC/C=C(\C)CCC=C(C)C [Compound 14] | 60 ± 17 | 4 ± 6 | 61.8 | 25.4 | – | – |
| COC(=O)c1ccc(OC)c(N(C/C=C(\C)CCC=C(C)C)C/C=C(\C)CCC=C(C)C)c1 [Compound 17] | 43 ± 15 | 0 | – | – | 73.2 | 42.14 |
| COC(=O)c1ccc(OC)c(N(C/C=C(\C)CC/C=C(\C)CCC=C(C)C)C/C=C(\C)CC/C=C(\C)CCC=C(C)C)c1 [Compound 18] | 100 | 100 | 56.6 | 5.35 | – | – |
| COc1ccc(C(=O)O)cc1N(CC=C(C)CCC=C(C)CCC=C(C)C)CC=C(C)CCC=C(C)CCC=C(C)C [Compound 19, 3-[Bis-(3,7,11-trimethyl-dodeca-2,6,10-trienyl)-amino]-4-methoxy-benzoic acid] | 60 ± 14 | 46 ± 28 | 30.6 | 15.3 | – | – |
| COC(=O)c1cccc(N(CC=C(C)CCC=C(C)C)CC=C(C)CCC=C(C)C)c1 [Compound 20, 3-[Bis-(3,7-dimethyl-octa-2,6-dienyl)-amino]-benzoic acid methyl ester] | 76 ± 25 | 3 ± 5 | 67.3 | 36.2 | – | – |
| CC(C)=CCC/C(C)=C/CC/C(C)=C/CN(C/C=C(\C)CC/C=C(\C)CCC=C(C)C)c1cccc(C(=O)O)c1 [Compound 23] | 41 ± 12 | 0 | 37.4 | 21.6 | – | – |
| CC(C)=CCC/C(C)=C/CN(C/C=C(\C)CCC=C(C)C)c1cccc(C(=O)O)c1 [Compound 24] | 24 ± 12 | 1.6 ± 2 | 37.4 | 24.6 | – | – |
| COc1ccccc1N(C/C=C(\C)CCC=C(C)C)C/C=C(\C)CCC=C(C)C [Compound 27] | 88.5 ± 0.7 | 51 ± 16 | 90.7 | 59.6 | – | – |
| COC(=O)c1ccc(O)c(N(CC=C(C)CCC=C(C)CCC=C(C)C)CC=C(C)CCC=C(C)CCC=C(C)C)c1 [Compound 28, 3-[Bis-(3,7,11-trimethyl-dodeca-2,6,10-trienyl)-amino]-4-hydroxy-benzoic acid methyl ester] | 83 ± 12 | 40.5 ± 19 | 48.5 | 20.7 | – | – |
| COC(=O)c1ccc(O)c(N(C/C=C(\C)CCC=C(C)C)C/C=C(\C)CCC=C(C)C)c1 [Compound 29] | 2.5 ± 3.5 | 0 ± 0 | 71.3 | 40.4 | – | – |
| COC(=O)c1ccc(OC)c(N(C/C=C(\C)CCC=C(C)C)C/C=C(\C)CCC=C(C)C)c1 [Compound 30] | 48 ± 6 | 33 ± 7 | – | – | 17.31 | 0.17 |
| COC(=O)c1ccc(OC(C)=O)c(N(C/C=C(\C)CCC=C(C)C)C/C=C(\C)CCC=C(C)C)c1 [Compound 31] | 89.5 ± 18 | 4.5 ± 6 | 108 | 17.4 | – | – |
| COC(=O)c1ccc(OC)c(N(CC=C(C)CCC=C(C)CCC=C(C)C)C(=O)OC(C)(C)C)c1 [Compound 33, 3-[tert-Butoxycarbonyl-(3,7,11-trimethyl-dodeca-2,6,10-trienyl)-amino]-4-methoxy-benzoic acid methyl ester] | 92 ± 4 | 61 ± 17 | 27.9 | 19.8 | – | – |
| COC(=O)c1ccc(OC)c(NCC=C(C)CCC=C(C)CCC=C(C)CCC=C(C)C)c1 [Compound 34, 4-Methoxy-3-(3,7,11,15-tetramethyl-hexadeca-2,6,10,14-tetraenylamino)-benzoic acid methyl ester] | 100 | 100 | 34.7 | 19.1 | – | – |
| COc1ccc(C(=O)NCCCO)cc1N(C/C=C(\C)CCC=C(C)C)C/C=C(\C)CCC=C(C)C [Compound 42] | – | – | 106 | 110 | – | – |
| CCCOc1ccc(C(=O)OC)cc1N(C/C=C(\C)CC/C=C(\C)CCC=C(C)C)CCC [Compound 44] | – | – | 79.6 | 8.26 | – | – |
| COc1ccc(C(=O)/N=C(\N)NCCCO)cc1N(C/C=C(\C)CCC=C(C)C)C/C=C(\C)CCC=C(C)C [Compound 45] | – | – | 125 | 111 | – | – |
| COc1ccc(C(=O)/N=C(\N)NCCO)cc1N(C/C=C(\C)CCC=C(C)C)C/C=C(\C)CCC=C(C)C [Compound 47] | – | – | 34.7 | 19.1 | – | – |
